Experimental data as given in publication PMC9101869, “5,2′-Dibromo-2,4′,5′-trihydroxydiphenylmethanone Inhibits LPS-Induced Vascular Inflammation by Targeting the Cav1 Protein” (Molecules, 2022).

Target: T1, Cav1 (Homo sapiens, UniProt Q03135)
T1 construct: commercial human recombinant Cav1 (Cloud-Clone Corp.); biotinylated for BLI
T1 sequence (Q03135 2-178): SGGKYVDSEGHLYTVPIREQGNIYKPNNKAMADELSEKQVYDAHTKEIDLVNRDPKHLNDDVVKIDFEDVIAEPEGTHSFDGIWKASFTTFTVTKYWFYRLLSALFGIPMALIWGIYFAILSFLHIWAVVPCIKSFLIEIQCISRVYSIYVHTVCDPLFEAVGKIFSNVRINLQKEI
Experiment: intrinsic fluorescence quenching, double logarithmic fit
Format: binding
Conditions: 298 K; Cav1 5.0 × 10^−9 mol/L; excitation 280 nm; n fitted as free exponent; read-out: Kb(L.mol^-1) (converted)
Source text: intrinsic fluorescence quenching, double logarithmic fit on Cav1

O=C(c1cc(Br)ccc1O)c1cc(O)c(O)cc1Br [TDD, 5,2′-dibromo-2,4′,5′-trihydroxydiphenylmethanone]
Kd: 0.917 nM
